The values below come from paper PMC10096180, “Half-Sandwich Type Platinum-Group Metal Complexes of C-Glucosaminyl Azines: Synthesis and Antineoplastic and Antimicrobial Activities” (Molecules, 2023).

Series [1] concerns methicillin-resistant Staphylococcus aureus (MRSA) clinical isolates. The experiment in a line: Broth microdilution MIC, clinical MRSA isolates. The class given is cell-based. To be noted: 24 h, 0.08–40 μM. The procedure: (§1) We used a set of clinical isolates of S. aureus and E. faecium that were collected at the Medical Center of the University of Debrecen (Hungary) between 1 January 2018. and 31 December 2020. The clinical isolates were identified using a Microflex MALDI-TOF mass spectrometer (Bruker, Billerica, MA, USA). The antibiotic susceptibility of the isolates was tested following the European Committee on Antimicrobial Susceptibility Testing (EUCAST) guidelines, which were valid at the time of collection.
(§2) Microdilution experiments were performed according to the standards of EUCAST [85]. The bacterial isolates to be tested were grown on Mueller–Hinton agar plates. The inoculum density of bacteria was set at 5.0 × 10^5 CFU/mL in microtiter plates in a final volume of 200 μL Mueller–Hinton broth. The tested concentration range was 0.08–40 μM (10 concentrations, twofold serial dilutions), and a drug-free growth control and an inoculum-free negative control were included. The inoculated plates were incubated for 24 h at 37 °C, then visually assessed. Minimum inhibitory concentration (MIC) was defined as the lowest concentration with a 50%≤ inhibitory effect compared to the growth control. All experiments were performed at least twice in duplicate.

Series [2] is described as follows: Distribution coefficient (logD), n-octanol-PBS. Format: physicochemical. To be noted: n-octanol-PBS (pH = 7.4) system. The procedure: The logD values of the newly synthesized complexes were determined according to a procedure described in our previous publications. page 64: Ir-7b +1.17 Rh-7b +1.41 Ru-7c +1.31 Os-7c +1.59 Ir-7c +1.40 Rh-7c +1.13 Ru-7d +1.26 Os-7d +1.42 Ir-7d +1.30 Rh-7d +1.04 Ru-7e +2.22 Os-7e +2.21 Ir-7e +1.39 Rh-7e +1.66 *logD was determined in an n-octanol-PBS (pH = 7.4) system 64 (14 pictures or pasted objects on this page, not shown here)

The subject of series [3] is A2780 cells. The experiment in a line: SRB binding assay, cytostasis, 48 h treatment. To be noted: for A2780 SRB Max Inhibition: up to 100 μM, ND = not detectable. The class given is cell-based. The procedure:
(§3) The complexes described above are intended to replace registered platinum complexes. Platinum complexes constitute the core of the chemotherapy regimen used in ovarian cancer; therefore, we used a cellular model of ovarian cancer, A2780, and primary human dermal fibroblasts as models of non-transformed cells (controls). For the characterization of the complexes, we used an MTT assay after 4 h of treatment for the detection of early toxicity and an SRB assay 48 h after treatment for the detection of cytostasis.
An SRB assay measures protein content of cells in correlation with the cell number in an assay well and can therefore be used to assess cell proliferation or long-term cytostasis. Cells were seeded in 96-well plates the day before the assay. Cells were treated with the compounds for 48 h. Then medium was removed, and cells were fixed with 10% trichloroacetic acid. Fixed cells were washed in distilled water 3 times, followed by staining with SRB (0.4 m/V% dissolved in 1% acetic acid) for 10 min. Stained cells were washed in 1% acetic acid 5 times; acetic acid was removed, and cells were left to dry. Protein-bound SRB was released by adding 100 μL 10 mM Tris base. Plates were measured in a plate photometer (Thermo Scientific Multiscan GO spectrophotometer, Waltham, MA, USA) at 540 nm. On each plate, wells were designed to contain vehicle-treated cells. In calculations, the readings for these wells were considered to be 1, and all readings were expressed relative to these values.
(§4) Statistical analysis was performed using version 8.0.1 of GraphPad Prism. Values were tested for normal distribution using the Shapiro–Wilk normality test. Nonlinear regression was performed using the built-in “[Inhibitor] vs. response—Variable slope (four parameters), least square fit” utility of GraphPad, which yielded IC50 and Hill slope values if the sigmoid curves reached a plateau of inhibition and there was no decrease between two subsequent data points or when inhibition was over 90%. In other cases, the percentage of inhibition was taken for the maximum concentration (100 μM).

Series [4] relates to primary human dermal fibroblasts. The experiment in a line: MTT reduction assay, early toxicity, 4 h treatment. The class given is cell-based. Particulars: up to 100 μM. The procedure:
as §3
(§5) An MTT reduction assay was measures the activity of mitochondrial complex I and can be used to detect toxicity. The assay was performed in a manner similar to that described in [84]. Briefly, cells were plated in 96-well plates the day before the assay. Cells were treated with the compounds for 4 h; then, MTT was added to a 0.5 mg/mL final concentration, and cells were incubated at 37 °C in a cell incubator for 40–60 min as a function of the cell line being assessed. Culture medium was removed, the reduced MTT dye was dissolved in dimethyl-sulfoxide, and plates were measured in a plate photometer (Thermo Scientific Multiscan GO spectrophotometer, Waltham, MA, USA) at 540 nm. On each plate, wells were designed to contain vehicle-treated cells. In calculations, the readings for these wells were considered to 1, and all readings were expressed relative to these values.
as §4

Series [5] deals with A2780 cells. The experiment in a line: MTT reduction assay, early toxicity, 4 h treatment. Format: cell-based. Particulars: for A2780 MTT Max Inhibition: inhibition at maximum concentration (100 μM) where no plateau, ND = not detectable. The procedure:
as §3, §5, §4

Series [6] deals with Enterococcus faecalis (ATCC29212). The experiment in a line: Broth microdilution MIC, reference strain. Format: cell-based. To be noted: 24 h, tested range 0.08–40 μM, read-out: MIC E. faecalis ATCC 29,212. The procedure: (§6) The reference strains of Staphylococcus aureus (ATCC29213) and Enterococcus faecalis (ATCC29212) were purchased from the ATCC (Manassas, VA, USA).
as §2

The test system of series [7] is Staphylococcus aureus (ATCC29213). The experiment in a line: Broth microdilution MIC, reference strain. Format: cell-based. Particulars: 24 h, 0.08–40 μM, read-out: MIC S. aureus ATCC 29213. The procedure: as §6, §2
Series [8] deals with vancomycin-resistant Enterococcus (VRE) clinical isolates. The experiment in a line: Broth microdilution MIC, clinical VRE isolates. The class given is cell-based, E. faecium. Particulars: 24 h, 0.08–40 μM. The procedure:
as §1, §2

Where [9] appears, read: clinical isolate 20,426 MRSA, read-out: MIC 20,426 MRSA.
The mark [10] stands for this setting: clinical isolate 24,035 MRSA, read-out: MIC 24,035 MRSA.
Setting [11] is: clinical isolate 24,268 MRSA, read-out: MIC 24,268 MRSA.
Where [12] appears, read: clinical isolate 24,272 MRSA, read-out: MIC 24,272 MRSA.
The mark [13] stands for this setting: clinical isolate 24,328 MRSA, read-out: MIC 24,328 MRSA.
[14] abbreviates: clinical isolate 24,408 MRSA, read-out: MIC 24,408 MRSA.
Where [15] appears, read: clinical isolate 25,051 VRE, read-out: MIC 25,051 VRE.
The mark [16] stands for this setting: clinical isolate 25,498 VRE, read-out: MIC 25,498 VRE.
The mark [17] stands for this setting: clinical isolate 27,085 VRE, read-out: MIC 27,085 VRE.

Like-named read-outs stand apart in the source and are kept apart here.

`Cc1ccc(C(C)C)cc1.F[P-](F)(F)(F)(F)F.NC1C(c2cccnn2)OC(COC(=O)c2ccccc2)C(OC(=O)c2ccccc2)C1OC(=O)c1ccccc1.[Cl][Os+]` (mixture of isomers) [Os-7b]: the MIC in series [1] (setting [9]) was 10 µM; in series [1] (setting [10]) it was 10 µM; in series [1] (setting [11]), 10 µM; in series [1] (setting [12]) it was 10 µM; in series [1] (setting [13]) it was 20 µM; in series [1] (setting [14]), 10 µM. Moreover, the MIC in series [6] amounted to 10 µM; in series [7] it was 20 µM; in series [8] (setting [15]) it was 10 µM; in series [8] (setting [16]) it was 10 µM; in series [8] (setting [17]), 10 µM. Besides, the logD in series [2] is listed as 1.32. The IC50 in series [3] is 56.4 µM. Besides, the “A2780 SRB Max Inhibition” value in series [3] is >90%. Also, the “Fibroblast MTT Max Inhibition” value in series [4] is reported as 27.22%. Also, the “A2780 MTT Max Inhibition” value in series [5] was determined as 53.39%.

As to `Cc1ccc(C(C)C)cc1.F[P-](F)(F)(F)(F)F.N[C@@H]1[C@@H](OCc2ccccc2)[C@H](OCc2ccccc2)[C@@H](COCc2ccccc2)O[C@H]1c1cnccn1.[Cl][Ru+]` [Ru-3d], the minimal inhibitory concentration (MIC) in series [1] (setting [9]), in series [1] (setting [10]), in series [1] (setting [11]), in series [1] (setting [12]), in series [1] (setting [13]) and in series [1] (setting [14]) was 20 µM in each case. Also, the MIC in series [6], in series [7], in series [8] (setting [15]), in series [8] (setting [16]) and in series [8] (setting [17]) was 20 µM each time. This molecule came in with a pH-dependent lipophilicity (logD) in series [2] of 2.06. The IC50 stood at 3.77 µM in series [3] and 19.3 µM in series [5]. In addition, the “A2780 SRB Max Inhibition” value in series [3] is reported as >90%. Besides, in series [4], the “Fibroblast MTT Max Inhibition” value was found to be 80.31%. Moreover, the “A2780 MTT Max Inhibition” value in series [5] is given as >90%.

Take `Cc1ccc(C(C)C)cc1.F[P-](F)(F)(F)(F)F.NC1C(c2cccnn2)OC(COC(=O)c2ccccc2)C(OC(=O)c2ccccc2)C1OC(=O)c1ccccc1.[Cl][Ru+]` (mixture of isomers) [Ru-7b]: the minimum inhibitory concentration (MIC) in series [1] (setting [9]) is listed as 10 µM; in series [1] (setting [10]) it was 10 µM; in series [1] (setting [11]) it was 10 µM; in series [1] (setting [12]), 20 µM; in series [1] (setting [13]) it was 20 µM; in series [1] (setting [14]) it was 10 µM. Besides, the MIC turned out to be 10 µM in series [6]; 20 µM in series [7]; 10 µM in series [8] (setting [15]); 10 µM in series [8] (setting [16]); 10 µM in series [8] (setting [17]). The molecule further showed a logD in series [2] of 1.39. The half-maximal inhibitory concentration (IC50) in series [3] was found to be 17.8 µM. In addition, the “A2780 SRB Max Inhibition” value in series [3] is >90%. Also, the “Fibroblast MTT Max Inhibition” value in series [4] was 47.04%. The “A2780 MTT Max Inhibition” value in series [5] amounted to 68.22%.

With `Cc1c(C)c(C)[c-](C)c1C.F[P-](F)(F)(F)(F)F.NC1C(c2cccnn2)OC(COC(=O)c2ccccc2)C(OC(=O)c2ccccc2)C1OC(=O)c1ccccc1.[Cl][Rh+2]` (mixture of isomers) [Rh-7b], the MIC in series [1] (setting [9]), in series [1] (setting [10]), in series [1] (setting [11]), in series [1] (setting [12]), in series [1] (setting [13]) and in series [1] (setting [14]) was >40 µM each time. For the same molecule, the MIC in series [6], in series [7], in series [8] (setting [15]), in series [8] (setting [16]) and in series [8] (setting [17]) was >40 µM in each case. For the same molecule, the logD in series [2] is on record as 1.41. In series [3], this molecule had a 50% inhibitory concentration (IC50) of 32 µM. Besides, the “A2780 SRB Max Inhibition” value in series [3] was >90%. Besides, the “Fibroblast MTT Max Inhibition” value in series [4] came to 11.39%. Further, the “A2780 MTT Max Inhibition” value in series [5] turned out to be 62.85%.

As for `Cc1c(C)c(C)[c-](C)c1C.F[P-](F)(F)(F)(F)F.NC1C(c2cccnn2)OC(COC(=O)c2ccccc2)C(OC(=O)c2ccccc2)C1OC(=O)c1ccccc1.[Cl][Ir+2]` (mixture of isomers) [Ir-7b], the minimal inhibitory concentration (MIC) in series [1] (setting [9]), in series [1] (setting [10]), in series [1] (setting [11]), in series [1] (setting [12]), in series [1] (setting [13]) and in series [1] (setting [14]) was 40 µM in each case. Moreover, the MIC in series [6] is recorded as 40 µM; in series [7], >40 µM; in series [8] (setting [15]), 40 µM; in series [8] (setting [16]) it was 40 µM; in series [8] (setting [17]), 40 µM. For the same molecule, in series [2], the logD turned out to be 1.17. Further, the “A2780 SRB Max Inhibition” value in series [3] is recorded as 77.58%. Further, in series [4], the “Fibroblast MTT Max Inhibition” value is given as 27.22%. Moreover, the “A2780 MTT Max Inhibition” value in series [5] was 53.39%.

Consider `Cc1ccc(C(C)C)cc1.F[P-](F)(F)(F)(F)F.N[C@@H]1[C@@H](OCc2ccccc2)[C@H](OCc2ccccc2)[C@@H](COCc2ccccc2)O[C@H]1c1cnccn1.[Cl][Os+]` [Os-3d], for which the minimum inhibitory concentration (MIC) in series [1] (setting [9]), in series [1] (setting [10]), in series [1] (setting [11]), in series [1] (setting [12]), in series [1] (setting [13]) and in series [1] (setting [14]) was 40 µM in each case. Further, the minimum inhibitory concentration (MIC) is on record as >40 µM in series [6]; 40 µM in series [7]; 40 µM in series [8] (setting [15]); 40 µM in series [8] (setting [16]); 40 µM in series [8] (setting [17]). Besides, the logD in series [2] is on record as 2.64. The results for the half-inhibitory concentration (IC50) in series [3] and in series [5] were 6.83 µM and 32.3 µM, respectively. Also, the “A2780 SRB Max Inhibition” value in series [3] is >90%. Besides, in series [4], the “Fibroblast MTT Max Inhibition” value amounted to 73.24%. For the same molecule, the “A2780 MTT Max Inhibition” value in series [5] stood at 86.83%.
